Reference: US5118690A, “Pharmaceutical tetrahydroisoquinolines” (John Wyeth & Brother Limited, priority 1989, dated 1992)

Columns and labels:
GABA autoreceptor [1] = assay: antagonist activity at GABA autoreceptors by blockade of agonist (muscimol)-induced inhibition of potassium-evoked [3H]-GABA release from rat cortex slices in vitro (Procedure 1); assay type: biochemical; conditions: for Antagonism at GABA autoreceptor pA2 values: Procedure 1, agonist muscimol, rat cerebral cortex slices; for IC50: inhibition of the effect of a single concentration of muscimol, read-out: IC50 value (GABA autoreceptor antagonism)
Text: (§1) Advantageously compounds of formula I appear to be selective in that they display little or no activity at GABAA receptors. The following test procedures were used to measure antagonist activity at (a) GABA autoreceptors by blockade of agonist-induced inhibition of potassium-evoked GABA release from rat cortex in vitro (Procedure 1); and (b) GABAA receptors by antagonism of agonist-induced depolarization of the isolated rat vagus nerve (Procedure 2):
Slices (0.25×0.25×2.0 mm) of rat cerebral cortex are prepared using a McIlwain tissue chopper. The slices are incubated in Krebs-Henseleit solution containing [^3 H]-GABA (10^-7 M) in the presence of amino-oxyacetic acid (AOAA) for 20 minutes at 37° C., rinsed with 5ml aliquots of Krebs-Henseleit solution and transferred to 10 superfusion chambers (volume 300μl). The slices are continuously superfused with Krebs-Henseleit solution (0.4 ml min^-1) containing AOAA (10^-5 M) and fractions of the superfusate collected every 4 minutes. Transmitter release is induced by 4 minute exposure to a Krebs-Henseleit solution containing 25 mM potassium ion (with concomitant reduction in sodium to maintain osmolarity) after 68 […] and 92 (S2) minutes of superfusion. The antagonist compound under study is added to the superfusing medium 10 minutes prior to the first potassium stimulation and remains throughout the superfusion. The GABA autoreceptor is activated by adding the agonist muscimol 20 minutes before the second potassium stimulation. The residual radioactivity in the slices at the end of the experiment together with that in the superfusate. fractions is measured by liquid scintillation counting
Calculations: The amount of radioactivity in each fraction is expressed as a percentage of the total radioactivity in the tissue at the start of the respective collection period. The amount of radioactivity released above basal by the increased potassium is calculated and the ratio S2/S1 obtained. The S2/S1 ratio from muscimol-treated slices is expressed as a percentage of the control drug-free S2/S1 ratio. A dose-response curve for the agonist muscimol is constructed and the effect of antagonists is measured by their ability to displace this dose-response curve to the right. From this measurement a pA2 value can be calculated. Alternatively, an IC50 value for antagonists can be calculated by inhibiting the effect of a single concentration of muscimol with increasing concentrations of antagonist.

GABAA receptor [2] = assay: antagonism at GABAA receptors: antagonism of GABA-induced depolarization of the isolated rat vagus nerve (Procedure 2); assay type: biochemical
Text: as §1
Male Sprague-Dawley rats (250-400g) are killed by a blow to the head and cervical dislocation. The cervical vagus nerves are transferred into Krebs' solution at room temperature and the connective tissue sheath removed. The vagus nerves are placed in two-compartment Perspex baths to permit extracellular recording of agonist induced depolarizations. Each nerve projects from one compartment to the next by way of a grease filled slot, the grease serving to insulate the compartments from each other. […] One compartment is continuously perfused (5ml min^-1) with Krebs' solution at 27° C. to which agonist and antagonist drugs are added. […] Non-cumulative concentration-response curves to GABA (10^-6 to 3×10^-4 M) are obtained using a 5 min contact time and 10-20 min wash period and the effect of the test antagonist compound is measured by its ability to shift this concentration-response curve to the right.

[3] = known; cited from earlier work
GABA autoreceptor [4] = conditions: previously shown; cited from earlier work
GABAA receptor [5] = conditions: non-selective; cited from earlier work

Compound | Antagonism at GABA autoreceptor pA2 values (GABA autoreceptor [1]) | IC50 (GABA autoreceptor [1]) | further results
c1csc(C2NCCc3ccccc32)c1 (racemic) [E, 1,2,3,4-Tetrahydro-1-(2-thienyl)isoquinoline] | 8.4 |  | 
COc1cc2c(cc1OC)[C@H]([C@@H]1CCCO1)NCC2 (relative stereo) [A, 1RS,2'SR-1-(2-Tetrahydrofuranyl)-1,2,3,4-tetrahydro-6,7 dimethoxyisoquinoline] | 7.0 |  | Antagonism at GABAA receptors (GABAA receptor [2]; at 10^-4 M): inactive
COc1cc2c(cc1OC)[C@H]([C@H]1CCCO1)NCC2 (relative stereo) [B, 1RS,2'RS-1-(2-Tetrahydrofuranyl) -1,2,3,4- Tetrahydro-6,7-dimethoxyisoquinoline] | 5.2 |  | 
c1ccc2c(c1)CCN[C@H]2[C@@H]1CCCO1 (relative stereo) [Compound C, 1RS, 2'SR-1-(2-Tetrahydrofuranyl)-1,2,3,4-tetrahydroisoquinoline] | 8.5 |  | 
CN1CCc2ccccc2[C@@H]1[C@@H]1CCCO1 (relative stereo) [Compound D, 1RS, 2'SR-1-(2-Tetrahydrofuranyl)-2-methyl-1,2,3,4-tetrahydroisoquinoline] | 9.2 |  | Antagonism at GABAA receptors (GABAA receptor [2]; at 10^-5 M): inactive
c1ccc2c(c1)CCN[C@H]2[C@@H]1CCCO1 (single isomer, unassigned) [(+) isomer of Compound C] |  | 8600 nM | 
CN1CCc2ccccc2[C@@H]1[C@@H]1CCCO1 (single isomer, unassigned) [(+) isomer of Compound D, (+)1R*,2'S*-1-(2-tetrahydrofuranyl)-2-methyl-1,2,3,4-tetrahydroisoquinoline] |  | 2.7 nM | 
c1ccc2c(c1)CCN[C@H]2[C@@H]1CCCO1 (single isomer, unassigned) [(-) enantiomer of Compound C] |  | 20 nM | 
CN1CCc2ccccc2[C@@H]1[C@@H]1CCCO1 (single isomer, unassigned) [(-) isomer of Compound D, (-) 1R*,2'S*-1-(2-tetrahydrofuranyl)-2-methyl-1,2,3,4-tetrahydroisoquinoline] |  | 260 nM | 
Oc1ccc(C2NCCc3cc(O)c(O)cc32)cc1 (stereo not drawn) [Example 12, 1-(4-Hydroxyphenyl)-6,7-dihydroxy-1,2,3,4-tetrahydroisoquinoline] |  | 480 nM | 
CN1CCc2cc3c(cc2[C@H]1[C@@H]1OC(=O)c2c1ccc1c2OCO1)OCO3 [bicuculline] |  |  | convulsant action [3]: known convulsants; activity at GABA autoreceptor (GABA autoreceptor [4]): antagonists at the GABA autoreceptor; activity at GABAA receptor (GABAA receptor [5]): also active at the GABAA receptor
picrotoxin |  |  | convulsant action [3]: known convulsants; activity at GABA autoreceptor (GABA autoreceptor [4]): antagonists at the GABA autoreceptor; activity at GABAA receptor (GABAA receptor [5]): also active at the GABAA receptor
